# Results reported in patent US9988606B2, “Generation of airway and lung progenitors and epithelial cells and three-dimensional anterior foregut spheres” (THE TRUSTEES OF COLUMBIA UNIVERSITY IN THE CITY OF NEW YORK, priority 2012, dated 2018).
# B1: NOGGIN: biological inhibitor of BMP4 signaling (protein, UniProt Q13253 28-232, looked up)
# Noggin: QHYLHIRPAPSDNLPLVDLIEHPDPIFDPKEKDLNETLLRSLLGGHYDPGFMATSPPEDRPGGGGGAAGGAEDLAELDQLLRQRPSGAMPSEIKGLEFSEGLAQGKKQRLSKKLRRKLQMWLWSQTFCPVLYAWNDLGSRFWPRYVKVGSCFSKRSCSVPEGMVCKPSKSVHLTVLRWRCQRRGGQRCGWIPIQYPIISECKCSC
# B2: BMP4: human BMP4, factor of the ventralization cocktail (protein, UniProt P12644 293-408, looked up)
# Bone morphogenetic protein 4: SPKHHSQRARKKNKNCRRHSLYVDFSDVGWNDWIVAPPGYQAFYCHGDCPFPLADHLNSTNHAIVQTLVNSVNSSIPKACCVPTELSAISMLYLDEYDKVVLKNYQEMVVEGCGCR
# B3: FGF10: human FGF10, factor of the ventralization cocktail (protein, UniProt O15520 38-208, looked up)
# Fibroblast growth factor 10: QALGQDMVSPEATNSSSSSFSSPSSAGRHVRSYNHLQGDVRWRKLFSFTKYFLKIEKNGKVSGTKKENCPYSILEITSVEIGVVAVKAINSNYYLAMNKKGKLYGSKEFNNDCKLKERIEENGYNTYASFNWQHNGRQMYVALNGKGAPRRGQKTRRKNTSAHFLPMVVHS
# B4: FGF7: human FGF7 (KGF), factor of the ventralization cocktail (protein, UniProt P21781 32-194, looked up)
# Fibroblast growth factor 7: CNDMTPEQMATNVNCSSPERHTRSYDYMEGGDIRVRRLFCRTQWYLRIDKRGKVKGTQEMKNNYNIMEIRTVAVGIVAIKGVESEFYLAMNKEGKLYAKKECNEDCNFKELILENHYNTYASAKWTHNGGEMFVALNQKGIPVRGKKTKKEQKTAHFLPMAIT
# Assays:
# [1] = system: RUES2 cells; test: Removing individual factors or blocking signaling pathways during the ventralization stage (d6-d15); type: cell-based, human
# Experimental: FIG. 3. Effect of removing individual factors or blocking signaling pathways during the ‘ventralization’ stage (d6-d15) on the expression of FOXA2 and NKX2.1 in RUES2 cells cultured according to the protocol shown on the upper right of the figure. 10× tile scans of 9 (3×3) contiguous fields. Immunofluorescence images represent reproducible results from 3 independent experiments.
# Day-15, -25 or -48 cultures in 48-well tissue culture plates were fixed with 4% paraformaldehyde for 15 minutes at room temperature and washed twice with PBS. The cells were permeabilized in PBS with 0.25% triton and 5% fetal donkey serum (Jackson ImmunoResearch, West Grove, Pa.) for 30 min and blocked in 5% fetal donkey serum for 2 hours at room temperature. The cell cultures were stained with one, or a combination of two or three of the following primary antibodies: FOXA2/HNF-3β (goat, Santa Cruz Biotechnology, Inc., Santa Cruz, Calif., Cat#sc-6554, clone M-20, 1:50), TTF-1/Nkx2.1 (mouse, Invitrogen, 18-0221, clone 8G7G3/1, 1:100), TTF-1/Nkx2.1 (Rabbit, Seven Hills Bioreagents, Cincinnati, Ohio, Cat#WRAB-1231, 1:1000), p63α (rabbit, Santa Cruz, sc-8344, clone H-129, 1:100), Sox2 (Rabbit, stemgent, 09-0024, 1:100), Pax 6 (rabbit, Covance, Princeton, N.J., Cat#PRB-278P, 1:300), Pax8 (mouse, Abcam, Cambridge, Mass., Cat#ab53490, 1:100), EpCAM (APC conjugated, mouse, BD Biosciences, BDB347200), Tuj1 (mouse, Sigma, T8578, Clone 2G10, 1:4000), Mucin5AC (mouse (Biotin), Abcam, ab79082, clone 45M1, 1:100), Mucin5B (rabbit, Santa Cruz, sc-20119, clone H-300, 1:100), Mucin2 (rabbit, Santa Cruz, sc-15334, clone H-300, 1:100), Foxj1 (mouse, e-bioscience, San Diego, Calif., Cat#14-9965-82, Clone: 2A5, 1:100), cc-10 (goat, Santa Cruz, clone C-20, sc-9770, 1:100), pro-SPC (rabbit, Seven Hills, WRAB-9337, 1:2000), mature-SPC (rabbit, Seven Hills, WRAB-76694, 1:1000), mature SPB (rabbit, Seven Hills, WRAB-48604, 1:1000), ABCA3 (rabbit, Seven Hills, WRAB-70565, 1:100), Mucin1 (Armenian Hamster, NeoMarkers, Fremont, Calif., Cat#HM-1630-P1ABX, clone MH1, 1:100), Podoplanin (rabbit, Santa Cruz, sc-134482 , FL-162, 1:100), AQP5 (goat, Santa Cruz, sc-9890, clone G-19, 1:100). Secondary antibodies were donkey anti-mouse whole IgG-Alexa Fluor 488, 715-545-150, donkey anti-mouse whole IgG-Alexa Fluor 647, 715-605-150, donkey anti-rabbit whole IgG-Alexa Fluor 488, 711-545-152, donkey anti-rabbit whole IgG-Cy3, 711-166-152, donkey anti-goat whole IgG-Alexa Fluor 488, donkey anti-goat whole IgG-Cy3, 705-165-147, donkey anti-goat whole IgG-Alexa Fluor 647, 705-605-147, all from Jackson ImmunoResearch.
# For d6-15 lung progenitor induction (9 days) , the AFE from Example 3 were treated with a ‘ventralization’ cocktail containing CHIR99021, 3 μM (WNT signaling agonist), human FGF10, 10 ng/ml; human FGF7, 10 ng/ml; human BMP4, 10 ng/ml; murine EGF, 20 ng/ml and all-trans retinoic acid (ATRA), 0-1 μM (all from R&D, except CHIR99021 from (Stemgent, Cambridge. Mass.) and ATRA from Sigma) in SFD media for 8-10 days. This treatment produced lung and airway progenitor cells (also herein referred to as “lung field progenitor cells”). At this stage, the lung progenitor cells were early, and they might have committed to a lineage of either lung or airway epithelium, but we wouldn't be able to know because the corresponding airway and distal lung specific markers are not expressed at this stage yet.
# To examine the contribution of each of the factors to the specification of lung and airway progenitors, each of the factors was withdrawn from the ‘ventralization’ cocktail (i.e., CHIR99021, FGF10, FGF7, BMP4 and EGF), or blocked by specific inhibitors (i.e., NOGGIN as biological inhibitor of BMP4 signaling and IWP2 as pharmacological inhibitor of WNT signaling), or added at different concentrations (i.e., RA 0, 0.05, 0.1, 0.5, 1 μM, and BMS493 (10 μM, Tocris) as RA inhibitor). […]
# [2] = system: RUES2 cells; test: RA concentration in the ventralization cocktail (NKX2.1 and FOXA2 mRNA and protein); type: cell-based, human
# Experimental: FIG. 2.(a) Expression of NKX2.1 and FOXA2 mRNA (lower left) and protein (lower right) after culture of RUES2 cells according to the protocol on top of the panel using various concentrations of RA during the ‘ventralization’ stage. Triplicate experiments representative of 3 independent experiments, *, P<0.05, compared with 0.5 μM RA group. (b) 10× tile scan of 25 (5×5) contiguous fields showing expression of FOXA2, SOX2 and NKX2.1 in RUES2 cells cultured according to the protocol on top of the panel. (c) 20× tile scan of 4 (2×2) contiguous fields showing expression of TUJ1, NKX2.1 and FOXA2.1 in RUES2 cells cultured according to the protocol on top of panel (b). […]
# Total RNA was extracted using Trizol (Invitrogen), phase lock tubes (5′ Prime) and RNeasy kit (Qiagen, Valencia, Calif.). RNA concentration was measured with a NanoDrop 2000 […] (Thermo Fisher Scientific). […] Real-time quantitative PCR was performed on ABI vii7A Thermocycler [Applied Biosystems (Life Technologies)] using ABI Power SYBR Green PCR Master Mix [Applied Biosystems (Life Technologies)]. […] Absolute quantification of each gene was obtained using a standard curve of serial diluted genomic DNA and normalized to housekeeping genes β-ACTIN and TBP (Tata Box Binding protein). […]
# [3] = factor removed from the CFKB cocktail, d6-d15
molecule,measurement,setting,value
Cc1ccc2nc(NC(=O)CSc3nc4c(c(=O)n3-c3ccccc3)SCC4)sc2c1 [IWP2],generation of NKX2.1+ cells,[1]; CHIR removed plus additional blockade of endogenous WNT signaling by the substance,completely abrogated
"CC1=C(/C=C/C(C)=C/C=C/C(C)=C/C(=O)O)C(C)(C)CCC1 [RA, all-trans retinoic acid]",NKX2.1 mRNA and NKX2.1+ fraction,"[2]; higher RA concentrations, FOXA2+ endoderm maintained",dropped
same,induction of NKX2.1 and FOXA2 mRNA and protein,[2]; low RA concentrations (0.05-0.1 μM),optimal induction
Cc1c[nH]c(-c2cnc(NCCNc3ccc(C#N)cn3)nc2-c2ccc(Cl)cc2Cl)n1 [CHIR],effect of removing the factor on generation of FOXA2+ and FOXA2+NKX2.1+ cells,[1]; [3],severely reduced
B1,generation of FOXA2+NKX2.1+ cells,[1]; BMP signaling blocked by addition of the substance during ventralization stage,less than 5%
B2,generation of NKX2.1+ cells after removing the factor,[1]; [3],approximately 40%
B3,effect of removing the factor on generation of FOXA2+ and FOXA2+NKX2.1+ cells,[1]; [3],no effect
B4,effect of removing the factor on generation of FOXA2+ and FOXA2+NKX2.1+ cells,[1]; [3],no effect
